Experimental data from PMC6151589, “Identification of Optically Active Pyrimidine Derivatives as Selective 5-HT2C Modulators” (Molecules : A Journal of Synthetic Chemistry and Natural …, 2017).
Where two headings read alike, the source gives them in different places.

Assays:
Format in all cases: binding
5-HT2C [1] = target: T1, 5-HT2C (Homo sapiens, UniProt P28335); assay: [3H]mesulergine displacement, membranes
T1 construct: gene HTR2C; human recombinant receptor; crude membrane fractions of transfected cells (CHO-K1; HEK293 or CHO)
T1 sequence (P28335 33-458): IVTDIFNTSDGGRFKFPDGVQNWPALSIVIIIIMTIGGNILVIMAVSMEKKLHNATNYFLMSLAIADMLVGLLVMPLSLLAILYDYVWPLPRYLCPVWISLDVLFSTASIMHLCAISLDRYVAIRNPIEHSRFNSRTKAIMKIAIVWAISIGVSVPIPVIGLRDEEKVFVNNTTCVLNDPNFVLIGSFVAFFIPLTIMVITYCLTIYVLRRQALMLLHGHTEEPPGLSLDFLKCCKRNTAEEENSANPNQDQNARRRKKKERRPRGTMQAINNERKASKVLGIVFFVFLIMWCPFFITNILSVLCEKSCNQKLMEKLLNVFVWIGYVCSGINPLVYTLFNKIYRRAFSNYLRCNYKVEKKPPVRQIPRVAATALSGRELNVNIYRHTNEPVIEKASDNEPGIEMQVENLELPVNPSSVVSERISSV
Source text: [3H]mesulergine displacement, membranes on 5-HT2C

5-HT2A = target: T2, 5-HT2A (Homo sapiens, UniProt P28223); assay: radioligand displacement, membranes
T2 construct: gene HTR2A; human recombinant receptor; crude membrane fractions of transfected HEK293 or CHO cells
Source text: radioligand displacement, membranes on 5-HT2A

5-HT2B = target: T3, 5-HT2B (Homo sapiens, UniProt P41595); assay: radioligand displacement, membranes
T3 construct: gene HTR2B; human recombinant receptor; crude membrane fractions of transfected HEK293 or CHO cells
Source text: radioligand displacement, membranes on 5-HT2B

5-HT2C [2] = target: T1, 5-HT2C; assay: [3H]mesulergine displacement, membranes; conditions: read-out: 5-HT2B / Ki

T3 sequence (P41595 whole entry): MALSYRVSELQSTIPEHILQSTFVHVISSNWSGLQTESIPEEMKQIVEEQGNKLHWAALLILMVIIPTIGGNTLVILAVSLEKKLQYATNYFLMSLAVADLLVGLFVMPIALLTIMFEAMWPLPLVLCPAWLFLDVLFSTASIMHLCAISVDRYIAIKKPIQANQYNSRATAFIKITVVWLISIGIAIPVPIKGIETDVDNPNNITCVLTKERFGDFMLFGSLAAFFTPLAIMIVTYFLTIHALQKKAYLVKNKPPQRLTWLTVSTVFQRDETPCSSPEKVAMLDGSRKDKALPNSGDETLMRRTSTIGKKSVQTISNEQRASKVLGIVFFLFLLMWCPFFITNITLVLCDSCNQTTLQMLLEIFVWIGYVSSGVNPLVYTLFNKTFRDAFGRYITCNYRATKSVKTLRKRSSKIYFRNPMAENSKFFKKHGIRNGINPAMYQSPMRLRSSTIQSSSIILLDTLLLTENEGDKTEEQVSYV
T2 sequence (P28223 whole entry): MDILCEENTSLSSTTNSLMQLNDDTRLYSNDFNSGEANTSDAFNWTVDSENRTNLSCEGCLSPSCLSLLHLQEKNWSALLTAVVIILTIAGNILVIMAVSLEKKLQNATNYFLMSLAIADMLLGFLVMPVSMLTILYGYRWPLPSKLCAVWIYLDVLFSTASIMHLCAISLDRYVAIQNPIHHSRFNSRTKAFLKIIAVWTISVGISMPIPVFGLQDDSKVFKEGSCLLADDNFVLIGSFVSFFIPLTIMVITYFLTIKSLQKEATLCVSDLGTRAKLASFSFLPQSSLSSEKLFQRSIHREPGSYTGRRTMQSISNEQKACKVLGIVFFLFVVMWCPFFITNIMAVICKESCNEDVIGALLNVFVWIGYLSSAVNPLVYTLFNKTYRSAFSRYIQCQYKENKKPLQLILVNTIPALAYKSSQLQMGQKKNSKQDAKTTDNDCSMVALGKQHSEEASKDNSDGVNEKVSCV

CC(Oc1nc(N2CCNC[C@H]2C)ncc1F)c1cccc(F)c1 (mixture of isomers) [4d, 5-Fluoro-4-(1-(3-fluorophenyl)ethoxy)-2-((R)-2-methylpiperazin-1-yl)pyrimidine]
Ki (5-HT2C [1]): 2.7 nM
Ki (5-HT2A): 213 nM
Ki (5-HT2B): 4.8 nM

CC(Oc1nc(N2CCNC[C@H]2C)ncc1F)c1ccc(F)cc1 (mixture of isomers) [4e, 5-Fluoro-4-(1-(4-fluorophenyl)ethoxy)-2-((R)-2-methylpiperazin-1-yl)pyrimidine]
Ki (5-HT2C [1]): 4.5 nM
Ki (5-HT2A): 426 nM
Ki (5-HT2B): 10 nM

CC(CCc1cccc(F)c1)Oc1nc(N2CCNC[C@H]2C)ncc1F (mixture of isomers) [4h, 5-Fluoro-4-((4-(3-fluorophenyl)butan-2-yl)oxy)-2-((R)-2-methylpiperazin-1-l)pyrimidine]
Ki (5-HT2C [1]): 14 nM
Ki (5-HT2A): 170 nM
Ki (5-HT2B): 16 nM

CC(CCc1ccc(F)cc1)Oc1nc(N2CCNC[C@H]2C)ncc1F (mixture of isomers) [4i, 5-Fluoro-4-((4-(4-fluorophenyl)butan-2-yl)oxy)-2-((R)-2-methylpiperazin-1-yl)pyrimidine]
Ki (5-HT2C [1]): 12 nM
Ki (5-HT2A): 173 nM
Ki (5-HT2B): 22 nM

C[C@@H]1CNCCN1c1ncc(F)c(OCc2ccccc2F)n1 [4a, (R)-5-Fluoro-4-((2-fluorobenzyl)oxy)-2-(2-methylpiperazin-1-yl)pyrimidine]
Ki (5-HT2C [1]): 31 nM
Ki (5-HT2A): 80 nM
Ki (5-HT2B): 56 nM

C[C@@H]1CNCCN1c1ncc(F)c(OCc2cccc(F)c2)n1 [4b, (R)-5-Fluoro-4-((3-fluorobenzyl)oxy)-2-(2-methylpiperazin-1-yl)pyrimidine]
Ki (5-HT2C [1]): 5.1 nM
Ki (5-HT2A): 43 nM
Ki (5-HT2B): 14 nM

C[C@@H]1CNCCN1c1ncc(F)c(OCc2ccc(F)cc2)n1 [4c, (R)-5-Fluoro-4-((4-fluorobenzyl)oxy)-2-(2-methylpiperazin-1-yl)pyrimidine]
Ki (5-HT2C [1]): 22 nM
Ki (5-HT2A): 51 nM
Ki (5-HT2B): 14 nM

C[C@@H]1CNCCN1c1ncc(F)c(OCCCc2cccc(F)c2)n1 [4f, (R)-5-Fluoro-4-(3-(3-fluorophenyl)propoxy)-2-(2-methylpiperazin-1-yl)pyrimidine]
Ki (5-HT2C [1]): 20 nM
Ki (5-HT2A): 138 nM
Ki (5-HT2B): 24 nM

C[C@@H]1CNCCN1c1ncc(F)c(OCCCc2ccc(F)cc2)n1 [4g, (R)-5-Fluoro-4-(3-(4-fluorophenyl)propoxy)-2-(2-methylpiperazin-1-yl)pyrimidine]
Ki (5-HT2A): 90 nM
Ki (5-HT2B): 22 nM
Ki (5-HT2C [2]): 22 nM
